Measured values from patent US20160143917A1, “COMPOSITIONS AND METHODS FOR MODULATING HIV ACTIVATION” (priority 2013, published 2016).
“And” between values parts separate entries of the source, which are not always exact repeats. Identical values can stand only once.

Key:
[1] = tested on: CHME5/HIV cells, a latently infected Fetal Microglia Cell line; experiment: Reactivation of latent HIV provirus (GFP expression) in microglial cells; type: cell-based
Description: FIGS. 5(A-D) illustrate histograms showing GFP expression in CHME5/HIV cells, a latently infected Fetal Microglia Cell line carrying a GFP-expressing provirus, that are: (A) unstimulated; (B) administered a suboptimal dose of TNFα (10 ng/ml); (C) administered […] Fulvestrant; or (D) pre-treated with Fulvestrant and administered a suboptimal dose of TNFα.
A. Unstimulated CHME5/HIV cells, a latently infected Fetal Microglia Cell line. Basal activation levels were 2.31%. B. Reactivation of CHME5/HIV cells with a suboptimal dose of TNFα (10 ng/ml) induced 13.96% of the proviruses. C. […] These observations indicate that pro-virus reactivation by modulating the ESR-1 is specific for T-cell.

[2] = tested on: latently HIV provirus infected Jurkat (T-cell) clone 2D10 cells carrying a GFP-expressing provirus; experiment: Reactivation of latent HIV provirus (GFP expression) in 2D10 cells; type: cell-based, human; details: for Un-stimulated: drug alone, no TNFα or SAHA, drug concentration (Fulvestrant 2.5 μM, Y-134 5 μM, Endoxifen 5 μM, MPP 5 μM, Tamoxifen 10 μM, Gossypol 5 μM, PPT 100 μM, Stilbestrol 5 μM); for +100 pg/ml TNFα drug: drug plus sub-optimum 100 pg/ml TNFα; for 250 nM SAHA drug: drug at row concentration plus sub-optimum 250 nM SAHA; for +400 pg/ml TNFα drug: pre-treatment with agonist at row concentration plus 400 pg/ml TNFα; for 2 μM SAHA drug: pre-treatment with agonist at row concentration plus 2 μM SAHA
Excerpt: Still other ESR-1 antagonists can be identified and screened for potential induction of latent HIV activation by using cell based assays described in Examples 1 and 2. For example to determine whether a composition or potential ESR-1 antagonist can induce HIV-1 provirus re-activation in latently infected primary T-cells (Th17), the ESR-1 antagonist can be administered to latently HIV provirus infected Jurkat (T-cell) clone 2D10 cells carrying a GFP-expressing provirus. The level of GFP expression can then be measured to determine activation. In another example, the ESR-1 antagonist can be administered to the latently infected primary T-cells (Th17) and phosphorylation of serine 175 of CDK9 can be measured by flow cytometry analysis. Along with CDK9 pSer175, expression of viral protein Nef can also measured.
FIG. 2 illustrates the ESR1 antagonist Fulvestrant weakly stimulates 2D10 reactivation and sensitizes the cells to reactivation by sub-optimal concentrations of TNF-α. A. Unstimulated cells showing the low basal activation levels of approximately 2%. […] C. Activation of cells with 2.5 μM Fulvestrant.
To further validate involvement of ESR-1 in latency maintenance program, we have examined a series of antagonists and agonist as represented in Table 2 on 2D10. In all the cases it was observed that blocking of ESR-1 by antagonist either constitutively re-activate or sensitizes the pro-virus to sub-optimum dose of TNFα (100 pg/ml) and SAHA (250 nM).

[3] = tested on: latently infected primary T-cells (Th17); experiment: CDK9 pSer175 and Nef by flow cytometry in latently infected primary T-cells; type: cell-based
Description: At the time of HIV-1 provirus re-activation one of the key marker is phosphorylation of serine 175 amino acid residue of CDK9 (CDK9 pSer175). To determine the status of HIV-1 provirus re-activation in latently infected primary T-cells (Th17) by ESR-1 antagonist Tamoxifen, phosphorylation of serine 175 of CDK9 was measured by flow cytometry analysis. Along with CDK9 pSer175, expression of viral protein Nef was also measured. […] Keeping that in mind, latently infected primary T-cell was treated with tamoxifen and SAHA alone or in combination where sub-optimum dose of (250 nM) was used (FIGS. 11 B, D, E). […] Therefore re-activation of latent provirus in Gossypol and/or SAHA treated primary T-cell was also examined (FIGS. 11 C-D).

[4] = tested on: Latently HIV-1 infected Th17 primary cells; experiment: Reactivation of latent provirus in primary Th17 cells, HIV Nef protein expression; type: cell-based; details: single agent; untreated cells 2.54%
Excerpt: FIG. 3 illustrates latently infected primary T-cells are reactivated by the ESR1 antagonist, Fulvestrant (ICI.182780). […] B. Stimulation of the latently infected cells through the T-cell receptor using antibodies to CD3/CD28 re-activated 60.82% of the cells in the population. C. […] Method: Naive T-cells from healthy donors were activated using anti-CD3/[…] antibodies and polarized in the direction of primary Th-17 cells using a cocktail of cytokines. The exponentially growing cells were infected with HIV-1 virus containing d2EGFP fused to CD8a for surface expression of the reporter gene. The CD8a positive cells were purified using CD8a antibody conjugated magnetic beads. The HIV-1 infected cells were allowed to become quiescent by culturing in media containing minimal levels of IL2.

**Q.** Which results are given for `Cc1cc2c(C(C)C)c(O)c(O)c(C=O)c2c(O)c1-c1c(C)cc2c(C(C)C)c(O)c(O)c(C=O)c2c1O` [Gossypol]?
**A.** pro-virus re-activation (GFP) ([1]; Gossypol alone): 1.60%; re-activation of pro-virus (GFP) ([1]; Gossypol combined with 10 ng/ml TNFα (sub-optimum)): 10.24%; proviral re-activation (GFP) ([2]; 5 μM Gossypol alone): 30.58%; re-activation (GFP) ([2]; 5 μM Gossypol combined with 100 pg/ml TNFα (sub-optimum)): 60.15%; Un-stimulated [2]: 30.58%; +100 pg/ml TNFα drug [2]: 60.15%

**Q.** What does the source list for `CC/C(=C(\c1ccccc1)c1ccc(OCCN(C)C)cc1)c1ccccc1` [Tamoxifen]?
**A.** re-activation of latent provirus (CDK9 pSer175 and Nef expression) ([3]; drug alone): failed to re-activate latent provirus; re-activation of latent provirus (CDK9 pSer175 and Nef expression) ([3]; drug combined with sub-optimum SAHA (250 nM)): elevated expression of both CDK9 pSer175 and Nef; Un-stimulated [2]: 12.09%; 250 nM SAHA drug [2]: 22.50%; +100 pg/ml TNFα drug [2]: 33.03%

**Q.** Which “latent proviruses/cells re-activated, measured by expression of the HIV Nef protein” value [4] does the source give for `C[C@]12CC[C@@H]3c4ccc(O)cc4C[C@@H](CCCCCCCCC[S+]([O-])CCCC(F)(F)C(F)(F)F)[C@H]3[C@@H]1CC[C@@H]2O` (stereo partly shown) [Fulvestrant] here?
**A.** 25.27%

**Q.** And the “stimulation of CHME5/HIV cells (GFP)” value ([1]; 2.5 mM Fulvestrant alone)?
**A.** did not stimulated CHME5/HIV cells beyond basal levels

**Q.** What about the “sensitization towards TNFα stimulation (GFP)” value ([1]; pre-treatment with Fulvestrant, then suboptimal TNFα (10 ng/ml)) of the same molecule?
**A.** did not sensitize the latent population towards TNFα stimulation

**Q.** What about the “reactivation of latent provirus (GFP)” value ([2]; 2.5 μM Fulvestrant alone) of the same molecule?
**A.** small but significant reactivation

**Q.** What about the GFP levels ([2]; 50 μM Fulvestrant alone) of the same molecule?
**A.** 8.05%

**Q.** What about the Un-stimulated [2] of the same molecule?
**A.** 2.68%

**Q.** And the “250 nM SAHA drug” value [2]?
**A.** 17.78%

**Q.** And the “+100 pg/ml TNFα drug” value [2]?
**A.** 41.01%

**Q.** And the “reactivation of latent population (GFP)” value ([2]; one hour pre-treatment with Fulvestrant, then 100 pg/ml TNFα)?
**A.** 41.01%

**Q.** And the “reactivation of pro-virus (GFP)” value ([2]; pre-treatment with Fulvestrant (50 μM) for one hour, then 250 nM SAHA)?
**A.** 18.80%

**Q.** Which results are given for TNFα?
**A.** proviruses induced (GFP) ([1]; 10 ng/ml TNFα alone (suboptimal), basal 2.31%): 13.96%; re-activation of latent provirus (GFP) ([2]; 100 pg/ml TNFα alone (sub-optimal)): 15.95%; proviral re-activation (GFP) ([2]; 400 pg/ml TNFα alone): 70.88%; +100 pg/ml TNFα ([2]; Control (2D10), 100 pg/ml TNFα alone, no ESR-1 drug): 16.15%; 400 pg/ml TNFα ([2]; Control (2D10), 400 pg/ml TNFα alone, no ESR-1 drug): 70.88% and 88.12%; proviruses stimulated (GFP) ([2]; phenol-red free media, 10% charcoal-stripped FBS (estrogen-depleted), 400 pg/ml TNFα alone): 79.59%

**Q.** `C[C@]12CC[C@@H]3c4ccc(O)cc4CC[C@H]3[C@@H]1CC[C@@H]2O` [β-estradiol] was tested. Which “stimulation of latent HIV proviruses (GFP)” value ([2]; estrogen-depleted media, 2 ng/ml β-estradiol alone) did it give?
**A.** does not stimulate latent HIV proviruses

**Q.** And the “responsiveness to TNFα (GFP)” value ([2]; estrogen-depleted media, 2 ng/ml β-estradiol plus 400 pg/ml TNFα)?
**A.** did not enhance responsiveness

**Q.** Which results are given for `O=C(CCCCCCC(=O)Nc1ccccc1)NO` [SAHA, suberoylanilide hydroxamic acid]?
**A.** cells induced (GFP) ([2]; 250 nM SAHA alone (sub-optimum)): 5.25%; re-activation of the population (GFP) ([2]; 1 μM SAHA alone): 65.87%; 250 nM SAHA ([2]; Control (2D10), 250 nM SAHA alone, no ESR-1 drug): 14.34%; 2 μM SAHA ([2]; Control (2D10), 2 μM SAHA alone, no ESR-1 drug): 65.43% and 71.83%

**Q.** Which Un-stimulated [2] does the source give for `CC/C(=C(\c1ccc(O)cc1)c1ccc(OCCNC)cc1)c1ccccc1` [Endoxifen] here?
**A.** 9.70%

**Q.** What about the “250 nM SAHA drug” value [2] of the same molecule?
**A.** 26.63%

**Q.** And the “+100 pg/ml TNFα drug” value [2]?
**A.** 29.31%

**Q.** Which Un-stimulated [2] does the source give for `Cc1c(-c2ccc(O)cc2)nn(-c2ccc(O)cc2)c1-c1ccc(OCCN2CCCCC2)cc1` [MPP] here?
**A.** 14.49%

**Q.** And the “250 nM SAHA drug” value [2]?
**A.** 31.14%

**Q.** And the “+100 pg/ml TNFα drug” value [2]?
**A.** 39.60%

**Q.** `CCCc1c(-c2ccc(O)cc2)nn(-c2ccc(O)cc2)c1-c1ccc(O)cc1` [PPT, 4,4′,4″-(4-Propyl-[1H]-pyrazole-1,3,5-triyl)trisphenol] was tested. Which “reactivation of latently infected cells (GFP)” value ([2]; 100 μM PPT alone) did it give?
**A.** not reactivated

**Q.** And the Un-stimulated [2]?
**A.** 3.57%

**Q.** And the “activation of the cells (GFP)” value ([2]; pre-treatment with PPT, then SAHA (1 μM))?
**A.** 8.77%

**Q.** And the “+400 pg/ml TNFα drug” value [2]?
**A.** 13.41%

**Q.** And the “2 μM SAHA drug” value [2]?
**A.** 6.76%

**Q.** And the “reactivation induced by TNFα (GFP)” value ([2]; pretreatment with PPT for one hour, then 400 pg/ml TNFα)?
**A.** 13.41%

**Q.** Which Un-stimulated [2] does the source give for `CC/C(=C(/CC)c1ccc(O)cc1)c1ccc(O)cc1` [Stilbestrol] here?
**A.** 6.20%

**Q.** What about the “+400 pg/ml TNFα drug” value [2] of the same molecule?
**A.** 33.70%

**Q.** What about the “2 μM SAHA drug” value [2] of the same molecule?
**A.** 4.34%

**Q.** What about the “effect of agonist pre-treatment on provirus re-activation” value ([2]; pre-treatment, optimum dose of TNFα (400 pg/ml) and SAHA (2 μM)) of the same molecule?
**A.** block the re-activation of latent pro-virus
